Measurements from patent US20170065564A1, “BIS-CYCLIC GUANIDINE COMPOUND COMPOSITIONS, METHODS OF USE AND TREATMENT THEREOF” (University of South Florida, priority 2014, published 2017).

Experiments:
Format in all cases: cell-based
[1] = tested on: ESKAPE pathogens; assay: MIC micro broth dilution assay, statements and stacked scores over all ESKAPE pathogens; details: for pathogens against which the compound showed activity at 4 ug/ml / pathogens against which the compound showed activity at 5 ug/ml / pathogens against which the compound showed activity at 10 ug/ml / pathogens against which the compound showed activity at 25 ug/ml: letters E,S,K,A,P,E = ESKAPE pathogens, — = none
Description: (§1) For this study we used a representative panel of multi-drug resistant clinical ESKAPE pathogen isolates (Supplemental Table S6).^42 43 3a, 44 45 Gram-positive organisms were grown in tryptic soy broth media (TSB), whilst Gram-negative organisms were grown in lysogeny Broth (LB), as described by us previously. ^43 MIC and MBC determination assays.
(§2) The minimum inhibitory concentration (MIC) for the combinatorial libraries, deconvolved 2157 library, and individual compounds were determined as follows. Broth cultures of ESKAPE strains were grown overnight before being diluted 1 in 1,000 in fresh media. Sterile 96-well plates were loaded with culture and compounds (in DMF) were added at decreasing concentrations to equal a total volume of 200 μl per well. Care was taken to not add more than 2.0% DMF to any well. Plates were then incubated at 37° C., and MICs determined after 24 hours by visual inspection for a lack of turbidity in wells. All assays were performed in triplicate with identical results obtained. For both the scaffold ranking and positional scanning samples, relative broad-spectrum activity was determined via stacked scores: […]

[2] = tested on: Staphylococcus aureus; assay: MIC micro broth dilution assay; parameters: key to stacked score activity, 100/MIC, S: stacked score = 100/MIC; details: S. aureus
Description: as §1
as §2, with “Broth” for “The minimum inhibitory concentration (MIC) for the combinatorial libraries, deconvolved 2157 library, and individual compounds were determined as follows. Broth”

[3] = tested on: Klebsiella pneumoniae; assay: MIC micro broth dilution assay; parameters: key to stacked score activity, 100/MIC, K: stacked score = 100/MIC; details: K. pneumoniae
Description: as §1
as §2, with “Broth” for “The minimum inhibitory concentration (MIC) for the combinatorial libraries, deconvolved 2157 library, and individual compounds were determined as follows. Broth”

[4] = tested on: Acinetobacter baumannii; assay: MIC micro broth dilution assay; parameters: key to stacked score activity, 100/MIC, A: stacked score = 100/MIC; details: A. baumannii
Description: as §1
as §2, with “Broth” for “The minimum inhibitory concentration (MIC) for the combinatorial libraries, deconvolved 2157 library, and individual compounds were determined as follows. Broth”

[5] = tested on: Enterococcus faecium; assay: MIC micro broth dilution assay; parameters: key to stacked score activity, 100/MIC, E: stacked score = 100/MIC; details: E. faecium
Description: as §1
as §2, with “Broth” for “The minimum inhibitory concentration (MIC) for the combinatorial libraries, deconvolved 2157 library, and individual compounds were determined as follows. Broth”

[6] = tested on: Enterobacter cloacae; assay: MIC micro broth dilution assay; parameters: key to stacked score activity, 100/MIC, E: stacked score = 100/MIC; details: E. cloacae
Description: as §1
as §2, with “Broth” for “The minimum inhibitory concentration (MIC) for the combinatorial libraries, deconvolved 2157 library, and individual compounds were determined as follows. Broth”

SMILES | stacked score activity, 100/MIC, S [2] | stacked score activity, 100/MIC, K [3] | stacked score activity, 100/MIC, A [4] | stacked score activity, 100/MIC, E [5] | stacked score activity, 100/MIC, E [6] | pathogens against which the compound showed activity at 4 ug/ml [1] | pathogens against which the compound showed activity at 5 ug/ml [1] | pathogens against which the compound showed activity at 10 ug/ml [1] | pathogens against which the compound showed activity at 25 ug/ml [1] | stacked score Total ([1]; stacked score over all ESKAPE pathogens (details in Table S4b)) | Total stacked score ([1]; sum over all six ESKAPE pathogens)
N=C1NC[C@H](CCCCN2C[C@@H](Cc3cccc4ccccc34)N(CCCCC3CCCCC3)C2=N)N1CCC12CC3CC(CC(C3)C1)C2 [Compound 23] | 25 | 0 | 0 | 4 | 0 |  |  |  | ESE |  | 
N=C1NC[C@H](CCCCN2C[C@@H](Cc3cccc4ccccc34)N(CCc3ccc(-c4ccccc4)cc3)C2=N)N1CCc1cccc(C(F)(F)F)c1 [Compound 6] | 20 | 20 | 20 | 10 | 20 |  | SKAE | ESKAE | ESKAPE |  | 
N=C1NC[C@H](CCCCN2C[C@H](CC3CCCCC3)N(CCc3ccc(-c4ccccc4)cc3)C2=N)N1CCc1cccc(C(F)(F)F)c1 [Compound 9] | 20 | 20 | 20 | 25 | 20 |  | ESKAPE | ESKAPE | ESKAPE |  | 
CCCCC1CN(CCCCC2CNC(=N)N2CCC23CC4CC(CC(C4)C2)C3)C(=N)N1CCc1ccc(-c2ccccc2)cc1 (centres unmarked) [Compound 21] | 20 | 20 | 25 | 33 | 20 |  | ESKAPE | ESKAPE | ESKAPE | 123 | 123

Continued, in another order:

stacked score activity, 100/MIC, S [2] | stacked score activity, 100/MIC, K [3] | stacked score activity, 100/MIC, A [4] | stacked score activity, 100/MIC, E [5] | stacked score activity, 100/MIC, E [6] | SMILES | pathogens against which the compound showed activity at 4 ug/ml [1] | pathogens against which the compound showed activity at 5 ug/ml [1] | pathogens against which the compound showed activity at 10 ug/ml [1] | pathogens against which the compound showed activity at 25 ug/ml [1] | stacked score Total ([1]; stacked score over all ESKAPE pathogens (details in Table S4b)) | Total stacked score ([1]; sum over all six ESKAPE pathogens)
20 | 20 | 25 | 25 | 20 | CCCCCCCN1C(=N)N(CCCC[C@H]2CNC(=N)N2CCC23CC4CC(CC(C4)C2)C3)C[C@H]1Cc1cccc2ccccc12 [Compound 22] | EAP | ESKAE | ESKAE | ESKAPE |  | 
33 | 0 | 4 | 10 | 0 | CCCCCCCN1C(=N)NC[C@@H]1CCCCN1C[C@H](C(C)CC)N(CCc2cccc(C)c2)C1=N (some centres unmarked) [Compound 32] |  |  |  | ESAP |  | 
10 | 0 | 4 | 4 | 0 | CCCCCCCN1C(=N)NC[C@@H]1CCCCN1C[C@@H](CCC)N(CCc2cccc(C)c2)C1=N [Compound 35] |  |  |  | ESAP |  | 
33 | 25 | 25 | 25 | 20 | CCCC[C@H]1CN(CCCC[C@H]2CNC(=N)N2CCc2cccc(C(F)(F)F)c2)C(=N)N1CCc1ccc(-c2ccccc2)cc1 [Compound 3] | ESKA | ESKAPE | ESKAPE | ESKAPE |  | 
